Converted amounts (≈) assume the structure as drawn. The source made the active and inactive calls. No cut-off for these calls is given here.
Columns and labels:
[1] = test system: Mycobacterium tuberculosis; experiment: Antitubercular activity against Mycobacterium tuberculosis H37Rv by Bactec 460 method; format: functional
[2] = test system: Mycobacterium tuberculosis; experiment: Antitubercular activity against Mycobacterium tuberculosis H37Rv at 500 ug/ml by Bactec 460 method; format: functional, organism-based
Mus musculus [3] = experiment: Acute toxicity in Swiss albino mouse assessed as observational changes at 5 to 300 mg/kg, po administered as single dose; format: organism-based; parameters: dose 5-300 mg/kg, route oral; conditions: in vivo
Mus musculus [4] = experiment: Acute toxicity in Swiss albino mouse assessed as morbidity at 5 to 300 mg/kg, po administered as single dose; format: organism-based; parameters: dose 5-300 mg/kg, route oral; conditions: in vivo
Mus musculus [5] = experiment: Acute toxicity in Swiss albino mouse assessed as mortality at 5 to 300 mg/kg, po administered as single dose; format: organism-based; parameters: dose 5-300 mg/kg, route oral; conditions: in vivo
Mus musculus [6] = experiment: Acute toxicity in Swiss albino mouse assessed as change in total RBC at 5 to 300 mg/kg, po administered as single dose; format: organism-based; parameters: dose 5-300 mg/kg, route oral; conditions: in vivo
Mus musculus [7] = experiment: Acute toxicity in Swiss albino mouse assessed as change in total WBC count at 5 to 300 mg/kg, po administered as single dose; format: organism-based; parameters: dose 5-300 mg/kg, route oral; conditions: in vivo
Mus musculus [8] = experiment: Acute toxicity in Swiss albino mouse assessed as change in differential leukocyte count at 5 to 300 mg/kg, po administered as single dose; format: organism-based; parameters: dose 5-300 mg/kg, route oral; conditions: in vivo
Mus musculus [9] = experiment: Acute toxicity in Swiss albino mouse assessed as change in hemoglobin level at 5 to 300 mg/kg, po administered as single dose; format: organism-based; parameters: dose 5-300 mg/kg, route oral; conditions: in vivo
Mus musculus [10] = experiment: Acute toxicity in Swiss albino mouse assessed as change in serum total cholesterol level at 5 to 300 mg/kg, po administered as single dose; format: organism-based; parameters: dose 5-300 mg/kg, route oral; conditions: in vivo
Mus musculus [11] = experiment: Acute toxicity in Swiss albino mouse assessed as change in triglyceride level at 5 to 300 mg/kg, po administered as single dose; format: organism-based; parameters: dose 5-300 mg/kg, route oral; conditions: in vivo
Mus musculus [12] = experiment: Acute toxicity in Swiss albino mouse assessed as change in creatinine level at 5 to 300 mg/kg, po administered as single dose; format: organism-based; parameters: dose 5-300 mg/kg, route oral; conditions: in vivo
Mus musculus [13] = experiment: Acute toxicity in Swiss albino mouse assessed as change in SGPT level at 5 to 300 mg/kg, po administered as single dose; format: organism-based; parameters: dose 5-300 mg/kg, route oral; conditions: in vivo
Mus musculus [14] = experiment: Acute toxicity in Swiss albino mouse assessed as change in SGOT level at 5 to 300 mg/kg, po administered as single dose; format: organism-based; parameters: dose 5-300 mg/kg, route oral; conditions: in vivo
Mus musculus [15] = experiment: Acute toxicity in Swiss albino mouse assessed as change in absolute and relative weight of the organs at 5 to 300 mg/kg, po administered as single dose; format: organism-based; parameters: dose 5-300 mg/kg, route oral; conditions: in vivo
[16] = Acute toxicity in po dosed Swiss albino mouse administered as single dose; format: organism-based; conditions: in vivo

Cc1cccc2c1C(Cl)=C(C=O)C2
MIC [1]: 125 µg/mL (≈ 649 µM)

COc1ccc2c(c1)C(Cl)=C(C=O)C1C2CC[C@@]2(C)C1CC[C@@H]2OC(C)=O (some centres not stated)
Activity [2]: inactive

COc1ccc2c(c1)CCCC2O (configuration not stated)
Activity [2]: inactive

COc1cc(C2C(C=O)=C(Cl)c3cc(OC)c(OC)c(OC)c32)cc(OC)c1OC (configuration not stated)
Activity [2]: inactive

CN[C@@H]1[C@H](O[C@H]2[C@H](O[C@H]3[C@H](O)[C@@H](O)[C@H](N=C(N)N)[C@@H](O)[C@@H]3N=C(N)N)O[C@@H](C)[C@]2(O)C=O)O[C@@H](CO)[C@H](O)[C@H]1O [STREPTOMYCIN]
MIC [1]: 2 µg/mL (≈ 3.44 µM)

O=CC1=C(Cl)c2ccc(Cl)cc2C1
MIC [1]: 125 µg/mL (≈ 587 µM)

CO[C@H]1/C=C/O[C@@]2(C)Oc3c(C)c(O)c4c(O)c(c(/C=N/N5CCN(C)CC5)c(O)c4c3C2=O)NC(=O)/C(C)=C\C=C\[C@H](C)[C@H](O)[C@@H](C)[C@@H](O)[C@@H](C)[C@H](OC(C)=O)[C@@H]1C [RIFAMPIN]
MIC [1]: 2 µg/mL (≈ 2.43 µM)

Cc1cc(O)c2c(c1)[C@H](O)CCC2=O [SHINANOLONE]
MIC [1]: 100 µg/mL (≈ 520 µM)

CC1CC(C=O)=C(Cl)c2ccccc21 (configuration not stated)
MIC [1]: 125 µg/mL (≈ 605 µM)

O=Cc1cc2ccccc2c(Cl)c1C=O
MIC [1]: 500 µg/mL (≈ 2290 µM)

O=CC1=C(Cl)c2ccccc2C1c1ccccc1 (configuration not stated)
MIC [1]: 250 µg/mL (≈ 981 µM)

COc1ccc2c(c1)CCC/C2=N\O
MIC [1]: 500 µg/mL (≈ 2610 µM)

COc1ccc2c(c1)CCCC2
MIC [1]: 125 µg/mL (≈ 771 µM)

O=CC1=C(Cl)c2cc3c(cc2C1)OCO3
MIC [1]: 125 µg/mL (≈ 561 µM)

CO[C@H]1CCC(=O)c2cccc(O)c21
MIC [1]: 6.25 µg/mL (≈ 32.5 µM)

COc1ccc2c(c1)CCCC2OC(C)=O (configuration not stated)
MIC [1]: 30 µg/mL (≈ 136 µM)

COc1ccc2c(c1)CC(C=O)=C2Cl
MIC [1]: 125 µg/mL (≈ 599 µM)

COc1ccc2c(c1)CCC(OC=O)=C2Cl
MIC [1]: 30 µg/mL (≈ 126 µM)
Activity (Mus musculus [3]): Non-toxic
Activity (Mus musculus [4]): Non-toxic
Activity (Mus musculus [5]): Non-toxic
Activity (Mus musculus [6]): Non-toxic
Activity (Mus musculus [7]): Non-toxic
Activity (Mus musculus [8]): Non-toxic
Activity (Mus musculus [9]): Non-toxic
Activity (Mus musculus [10]): Non-toxic
Activity (Mus musculus [11]): Non-toxic
Activity (Mus musculus [12]): Non-toxic
Activity (Mus musculus [13]): Non-toxic
Activity (Mus musculus [14]): Non-toxic
Activity (Mus musculus [15]): Non-toxic
MTD [16]: 300 mg/kg

COc1ccc2c(c1)CCC(C=O)=C2Cl
MIC [1]: 125 µg/mL (≈ 561 µM)

COc1cc2c(cc1C=O)C=CCC2
MIC [1]: 500 µg/mL (≈ 2660 µM)

Cc1ccc2c(c1)CC(C=O)=C2Cl
MIC [1]: 250 µg/mL (≈ 1300 µM)

O=CC1=C(Cl)c2ccccc2CC1
MIC [1]: 60 µg/mL (≈ 311 µM)

COc1ccc2c(c1)CCC(CO)=C2Cl
MIC [1]: 500 µg/mL (≈ 2230 µM)

Source: ChEMBL document CHEMBL1795209, “1-Chloro-2-formyl indenes and tetralenes as antitubercular agents” (Bioorg Med Chem Lett, 2011)
